In patent publication US10323032B2, “P2X7 Modulators” (Janssen Pharmaceutica NV, priority 2013, dated 2019):
Read-outs that look alike come from different tables or passages of the source.

Biological target: P2X7 receptor (Homo sapiens (Human), UniProt Q99572)
Experiment: P2X7 antagonism in human PBMCs: IL-1β release (ELISA) after LPS + Bz-ATP
Format: cell-based
Conditions: LPS 30 ng/ml + 0.5 mM Bz-ATP; for remaining activity at 10 µM: read-out: PBMC 10 μM (% control)
Description: Human blood was collected using a blood donor program. […] Cells were incubated for an additional 1.5 hours. […] Data are analyzed and graphed on Graphpad Prism 5. […] The IC50 for each compound is then uploaded into 3DX.

[1] = P2X7, Table 3 (additional runs), 10 μM compound

P2X7 receptor, sequence (Q99572 whole entry): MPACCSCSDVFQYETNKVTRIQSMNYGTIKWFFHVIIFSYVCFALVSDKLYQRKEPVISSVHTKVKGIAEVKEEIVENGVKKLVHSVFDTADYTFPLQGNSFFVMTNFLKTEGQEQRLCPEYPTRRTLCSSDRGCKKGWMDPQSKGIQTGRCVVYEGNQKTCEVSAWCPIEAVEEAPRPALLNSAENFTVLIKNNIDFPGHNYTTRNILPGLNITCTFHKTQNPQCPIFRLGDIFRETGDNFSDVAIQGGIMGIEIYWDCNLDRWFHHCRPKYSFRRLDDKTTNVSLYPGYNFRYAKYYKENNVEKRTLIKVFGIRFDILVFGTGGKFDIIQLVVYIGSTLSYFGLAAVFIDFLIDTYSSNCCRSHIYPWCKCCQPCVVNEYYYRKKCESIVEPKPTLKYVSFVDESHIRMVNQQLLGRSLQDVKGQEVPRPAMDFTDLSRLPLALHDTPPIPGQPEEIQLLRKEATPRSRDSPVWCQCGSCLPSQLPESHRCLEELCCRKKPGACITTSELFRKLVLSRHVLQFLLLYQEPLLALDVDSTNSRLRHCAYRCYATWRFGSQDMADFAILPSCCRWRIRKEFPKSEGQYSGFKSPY

remaining activity at 10 µM [1] | SMILES | other results
-18.9% | Cc1nc2c(c(-c3ccn[nH]3)n1)C[C@@H](C)N(C(=O)c1cccc(F)c1Cl)C2 (single isomer, unassigned) [Example 144, (R*)-(2-chloro-3-fluorophenyl)(2,6-dimethyl-4-(1H-pyrazol-5-yl)-5,6-dihydropyrido[3,4-d]pyrimidin-7(8H)-yl)methanone] | –
-0.6% | Cc1nc2c(c(-c3ccn[nH]3)n1)C[C@@H](C)N(C(=O)c1cccc(OC(F)(F)F)c1)C2 (single isomer, unassigned) [Example 141, (R*)-(2,6-dimethyl-4-(1H-pyrazol-5-yl)-5,6-dihydropyrido[3,4-d]pyrimidin-7(8H)-yl)(3-(trifluoromethoxy)phenyl)methanone] | –
– | Cc1nc2c(c(-c3ccn[nH]3)n1)CC(C)N(C(=O)c1cccc(OC(F)(F)F)c1)C2 (stereo not shown) [Example 140, (2,6-dimethyl-4-(1H-pyrazol-5-yl)-5,6-dihydropyrido[3,4-d]pyrimidin-7(8H)-yl)(3-(trifluoromethoxy)phenyl)methanone] | PBMC 10 μM (% control) (Table 3 (additional runs), 10 μM compound): 52.5 % control
– | Cc1nc2c(c(-c3ccn[nH]3)n1)C[C@H](C)N(C(=O)c1ccc(Cl)cc1F)C2 (single isomer, unassigned) [Example 89, (S*)-(4-chloro-2-fluorophenyl)(2,6-dimethyl-4-(1H-pyrazol-5-yl)-5,6-dihydropyrido[3,4-d]pyrimidin-7(8H)-yl)methanone] | remaining activity at 10 µM (P2X7, Table 2, 10 μM compound): -16.4%
